Literature values as cited in patent US11058615B1, “Cosmetic dermal serum with skin rejuvenation properties” (Key Element LLC, priority 2018, dated 2021).

Legend:
skin blemishes = settings: recent clinical studies (ncbi.nlm.nih.gov/pubmed/18492184)
hyperpigmentation = hyperpigmentation caused by exposure to UVA and UVB

O=C1O[C@H]([C@@H](O)CO)C([O-])=C1OP(=O)([O-])[O-].[Na+].[Na+].[Na+] [SAP, Sodium Ascorbyl Phosphate]
efficacy to fight skin blemishes (skin blemishes): significant efficacy
efficacy in helping to normalize skin tone (hyperpigmentation): excellent efficacy
